Reference: PubChem BioAssay AID2060884 (Molecular Pharmacology Branch, DTP, NCI, 2025)

Tested on: NCI-H929 complex spheroids, viability % test/control
Assay: Anticancer human tumor NCI-H929 cell line growth inhibition [RAS];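 also: compound exposure lasted seven days before viability was read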;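 as to viability, T/C: 100% = DMSO vehicle control viability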
Settings: for IC50: curve of first compound; for viability, T/C: stronger effect = lower value
In short: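 Multi-cell-type spheroids: tumor cells plus HUVEC endothelial cells and mesenchymal stem cells. RAS-pathway inhibitors were combined with targeted agents, each dosed in half-log steps down from clinical Cmax, or from 10 microM when Cmax was unknown.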

CCN1CCN(Cc2ccc(Nc3ncc(F)c(-c4cc(F)c5nc(C)n(C(C)C)c5c4)n3)nc2)CC1 + C=CC(=O)N1CCN(c2nc(OCC3CCCN3C)nc3c(F)c(-c4nc(N)cc(C)c4C(F)(F)F)c(Cl)cc23)C(C)C1
IC50 (second compound 0.00316 µM): > 1000 nM | IC50 (second compound 0.01 µM): > 1000 nM | IC50 (second compound 0.0316 µM): > 1000 nM | IC50 (second compound 0.1 µM): > 1000 nM | IC50 (second compound 0.316 µM): > 1000 nM | IC50 (second compound 1 µM): > 1000 nM | viability, T/C (second compound 0.00316 µM, first compound 0.00316 µM): 99.6% | viability, T/C (second compound 0.00316 µM, first compound 0.01 µM): 97.4% | viability, T/C (second compound 0.00316 µM, first compound 0.0316 µM): 108% | viability, T/C (second compound 0.00316 µM, first compound 0.1 µM): 103% | viability, T/C (second compound 0.00316 µM, first compound 0.316 µM): 117% | viability, T/C (second compound 0.00316 µM, first compound 1 µM): 107% | viability, T/C (second compound 0.01 µM, first compound 0.00316 µM): 100% | viability, T/C (second compound 0.01 µM, first compound 0.01 µM): 105% | viability, T/C (second compound 0.01 µM, first compound 0.0316 µM): 105% | viability, T/C (second compound 0.01 µM, first compound 0.1 µM): 109% | viability, T/C (second compound 0.01 µM, first compound 0.316 µM): 118% | viability, T/C (second compound 0.01 µM, first compound 1 µM): 115% | viability, T/C (second compound 0.0316 µM, first compound 0.00316 µM): 102% | viability, T/C (second compound 0.0316 µM, first compound 0.01 µM): 103% | viability, T/C (second compound 0.0316 µM, first compound 0.0316 µM): 112% | viability, T/C (second compound 0.0316 µM, first compound 0.1 µM): 109% | viability, T/C (second compound 0.0316 µM, first compound 0.316 µM): 119% | viability, T/C (second compound 0.0316 µM, first compound 1 µM): 113% | viability, T/C (second compound 0.1 µM, first compound 0.00316 µM): 95.8% | viability, T/C (second compound 0.1 µM, first compound 0.01 µM): 105% | viability, T/C (second compound 0.1 µM, first compound 0.0316 µM): 108% | viability, T/C (second compound 0.1 µM, first compound 0.1 µM): 112% | viability, T/C (second compound 0.1 µM, first compound 0.316 µM): 119% | viability, T/C (second compound 0.1 µM, first compound 1 µM): 111% | viability, T/C (second compound 0.316 µM, first compound 0.00316 µM): 102% | viability, T/C (second compound 0.316 µM, first compound 0.01 µM): 105% | viability, T/C (second compound 0.316 µM, first compound 0.0316 µM): 113% | viability, T/C (second compound 0.316 µM, first compound 0.1 µM): 113% | viability, T/C (second compound 0.316 µM, first compound 0.316 µM): 119% | viability, T/C (second compound 0.316 µM, first compound 1 µM): 115% | viability, T/C (second compound 1 µM, first compound 0.00316 µM): 108% | viability, T/C (second compound 1 µM, first compound 0.01 µM): 111% | viability, T/C (second compound 1 µM, first compound 0.0316 µM): 112% | viability, T/C (second compound 1 µM, first compound 0.1 µM): 114% | viability, T/C (second compound 1 µM, first compound 0.316 µM): 120% | viability, T/C (second compound 1 µM, first compound 1 µM): 101%

CC(=O)OC12COC1CC(O)C1(C)C(=O)C(O)C3=C(C)C(OC(=O)C(O)C(NC(=O)OC(C)(C)C)c4ccccc4)CC(O)(C(OC(=O)c4ccccc4)C21)C3(C)C (centres undefined) + CCn1c(-c2cc(N3CCN(C)CC3)cnc2C(C)OC)c2c3cc(ccc31)-c1csc(n1)CC(NC(=O)C1CC1C)C(=O)N1CCCC(N1)C(=O)OCC(C)(C)C2
IC50 (second compound 0.000949 µM): < 31.6 nM | IC50 (second compound 0.003 µM): < 31.6 nM | IC50 (second compound 0.00949 µM): < 31.6 nM | IC50 (second compound 0.03 µM): < 31.6 nM | IC50 (second compound 0.0949 µM): < 31.6 nM | IC50 (second compound 0.3 µM): < 31.6 nM | viability, T/C (second compound 0.000949 µM, first compound 0.0316 µM): 0.9% | viability, T/C (second compound 0.000949 µM, first compound 0.1 µM): 0.92% | viability, T/C (second compound 0.000949 µM, first compound 0.316 µM): 1.34% | viability, T/C (second compound 0.000949 µM, first compound 1 µM): 1.14% | viability, T/C (second compound 0.000949 µM, first compound 3.16 µM): 1.74% | viability, T/C (second compound 0.000949 µM, first compound 10 µM): 1.22% | viability, T/C (second compound 0.003 µM, first compound 0.0316 µM): 1.12% | viability, T/C (second compound 0.003 µM, first compound 0.1 µM): 1.88% | viability, T/C (second compound 0.003 µM, first compound 0.316 µM): 1.04% | viability, T/C (second compound 0.003 µM, first compound 1 µM): 0.64% | viability, T/C (second compound 0.003 µM, first compound 3.16 µM): 1.46% | viability, T/C (second compound 0.003 µM, first compound 10 µM): 0.97% | viability, T/C (second compound 0.00949 µM, first compound 0.0316 µM): 1.36% | viability, T/C (second compound 0.00949 µM, first compound 0.1 µM): 1.42% | viability, T/C (second compound 0.00949 µM, first compound 0.316 µM): 1.07% | viability, T/C (second compound 0.00949 µM, first compound 1 µM): 1.07% | viability, T/C (second compound 0.00949 µM, first compound 3.16 µM): 0.91% | viability, T/C (second compound 0.00949 µM, first compound 10 µM): 1.16% | viability, T/C (second compound 0.03 µM, first compound 0.0316 µM): 1.81% | viability, T/C (second compound 0.03 µM, first compound 0.1 µM): 0.83% | viability, T/C (second compound 0.03 µM, first compound 0.316 µM): 0.75% | viability, T/C (second compound 0.03 µM, first compound 1 µM): 1.71% | viability, T/C (second compound 0.03 µM, first compound 3.16 µM): 0.99% | viability, T/C (second compound 0.03 µM, first compound 10 µM): 1.17% | viability, T/C (second compound 0.0949 µM, first compound 0.0316 µM): 1.09% | viability, T/C (second compound 0.0949 µM, first compound 0.1 µM): 0.75% | viability, T/C (second compound 0.0949 µM, first compound 0.316 µM): 0.6% | viability, T/C (second compound 0.0949 µM, first compound 1 µM): 0.56% | viability, T/C (second compound 0.0949 µM, first compound 3.16 µM): 1.05% | viability, T/C (second compound 0.0949 µM, first compound 10 µM): 0.51% | viability, T/C (second compound 0.3 µM, first compound 0.0316 µM): 0.99% | viability, T/C (second compound 0.3 µM, first compound 0.1 µM): 0.51% | viability, T/C (second compound 0.3 µM, first compound 0.316 µM): 0.87% | viability, T/C (second compound 0.3 µM, first compound 1 µM): 0.72% | viability, T/C (second compound 0.3 µM, first compound 3.16 µM): 0.64% | viability, T/C (second compound 0.3 µM, first compound 10 µM): 0.46%
